# Measured values as given in the supplement of paper PMC11208160.
# Assay: recombinant barcode read abundance after kanamycin selection (control-corrected) (log10(CPM+1)); higher = more efficient recombination; sequences stand for … in AGTGCAGAGAAAATCGGCCAGTTTTCTCTGCCTGCAGTCCGCATGCCGT…AGATTTATGCAGCGGACTGCCTTTCTCCCAAAGTGATAAACCGGACAGTATCATGGACCGGTTTTCCCGGTAATCCGTATTTGCAAGGTTGGTTTCACT; site = the 11-nt target
# Method: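 Pooled E. coli target-specificity screen for the IS621 bridge recombinase. Each library plasmid pairs an 11-nt target (CT core) with a bridge RNA whose target-binding loop (9-nt LTG + 4-nt RTG) is reprogrammed; the rest of the 177-nt WT IS621 bridge RNA scaffold is fixed. The plasmid is co-electroporated with a WT donor plasmid; recombinase is induced with 0.1 mM IPTG and recombinants are selected on kanamycin. Recombinant barcodes are sequenced, converted to CPM, averaged over two biological replicates and corrected by the unselected control CPM. Molecule = full bridge RNA written as DNA: LTG = specificity nt 1-9, RTG = reverse complement of specificity nt 8-11, in the WT scaffold.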
# 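Note: IS621 recombinase and bridge RNA in Escherichia coli cells.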
row,Sequence,recombinant barcode read abundance (log10)
1,ACTCTACCTTGGGTTCTAACCTGTTGCTA (site ACCCTCCCTTA),0.0533
2,ACTCTACCTTGGGTTCTAACCTGTTGCTA (site ACTCTACCTTA),1.12
3,ACTCTAGCTTGGGTTCTAACCTGTTGCTC (site ACTCTAGCTGA),1.05
4,ACTCTAGCTTGGGTTCTAACCTGTTGCTC (site GCTCTAGCTTA),0.265
5,ACTCTGTCTTGGGTTCTAACCTGTTGCTT (site ACCCTATCTAA),0.124
6,ACTCTGTCTTGGGTTCTAACCTGTTGCTT (site ACTCTGTCTAA),1.86
7,ACTGATGCTTGGGTTCTAACCTGTTGCCT (site ACTGATACTAG),1.08
8,ACTGATGCTTGGGTTCTAACCTGTTGCCT (site ACTGATCCTAG),0.0449
9,ACTGATGCTTGGGTTCTAACCTGTTGCCT (site ACTGATGCTAG),2.09
10,ACTGATGCTTGGGTTCTAACCTGTTGCCT (site ACTGATTCTAG),0.0409
11,ACTGTATCTTGGGTTCTAACCTGTTGCCT (site ACTGTATCTAG),1.13
12,ACTGTATCTTGGGTTCTAACCTGTTGCCT (site CCTGTATCTAG),0.134
13,ACTGTATCTTGGGTTCTAACCTGTTGCCT (site GCTGTATCTAG),0.0734
14,ACTGTATCTTGGGTTCTAACCTGTTGCCT (site TCTGTATCTAG),0.231
15,ACTGTCACTTGGGTTCTAACCTGTTGCCT (site ACTGTCACTAG),2.36
16,ACTGTCACTTGGGTTCTAACCTGTTGCCT (site ACTGTGACTAG),0.0913
17,ACTGTGACTTGGGTTCTAACCTGTTGCCT (site ACTGTCACTAG),0.317
18,ACTGTGACTTGGGTTCTAACCTGTTGCCT (site ACTGTGACTAG),2.71
19,ACTTAGACTTGGGTTCTAACCTGTTGCCC (site ACTTAGACTAG),0.424
20,ACTTAGACTTGGGTTCTAACCTGTTGCCC (site ACTTAGACTCG),0.333
21,ACTTAGACTTGGGTTCTAACCTGTTGCCC (site ACTTAGACTGG),1.46

row,Sequence,recombinant barcode read abundance (log10)
1,ACTTAGACTTGGGTTCTAACCTGTTGCCC (site ACTTAGACTTG),0
2,ACTTAGTCTTGGGTTCTAACCTGTTGCTC (site ACTTAGTCTGA),1.04
3,ACTTAGTCTTGGGTTCTAACCTGTTGCTC (site TGCCCCGCTAG),0.0305
4,ACTTCAACTTGGGTTCTAACCTGTTGCCT (site ACATCAACTAG),0.0253
5,ACTTCAACTTGGGTTCTAACCTGTTGCCT (site ACCTCAACTAG),0.026
6,ACTTCAACTTGGGTTCTAACCTGTTGCCT (site ACGTCAACTAG),0.161
7,ACTTCAACTTGGGTTCTAACCTGTTGCCT (site ACTTCAACTAG),0.101
8,ACTTCACCTTGGGTTCTAACCTGTTGCCT (site ACTTCACCTAG),1.02
9,ACTTCACCTTGGGTTCTAACCTGTTGCCT (site ACTTCTGCTAG),0.0689
10,ACTTCTACTTGGGTTCTAACCTGTTGCCG (site ACTTCTACTCG),0.195
11,ACTTCTACTTGGGTTCTAACCTGTTGCCG (site ACTTCTTCTAG),0.204
12,ACTTGACCTTGGGTTCTAACCTGTTGCGG (site ACTTGACCTCC),2.31
13,ACTTGACCTTGGGTTCTAACCTGTTGCGG (site AGTTAACCTCC),0
14,ACTTGCCCTTGGGTTCTAACCTGTTGCCT (site AATTGCCCTAG),0.0465
15,ACTTGCCCTTGGGTTCTAACCTGTTGCCT (site ACTTGCCCTAG),0.925
16,ACTTGCCCTTGGGTTCTAACCTGTTGCCT (site AGTTGCCCTAG),0.00674
17,ACTTGCCCTTGGGTTCTAACCTGTTGCCT (site ATTTGCCCTAG),0.57
18,ACTTTGTCTTGGGTTCTAACCTGTTGCCT (site ACATTGTCTAG),0.0289
19,ACTTTGTCTTGGGTTCTAACCTGTTGCCT (site ACCTTGTCTAG),0.085
20,ACTTTGTCTTGGGTTCTAACCTGTTGCCT (site ACGTTGTCTAG),0.0449
21,ACTTTGTCTTGGGTTCTAACCTGTTGCCT (site ACTTTGTCTAG),0.596

row,Sequence,recombinant barcode read abundance (log10)
1,AGAAACACTTGGGTTCTAACCTGTTGCCT (site AGAAACACTAG),1.34
2,AGAAACACTTGGGTTCTAACCTGTTGCCT (site AGGAACACTAG),0.0546
3,AGAAATTCTTGGGTTCTAACCTGTTGCCT (site AGAAATTCTAG),0.52
4,AGAAATTCTTGGGTTCTAACCTGTTGCCT (site AGCAATTCTAG),0.0252
5,AGAAATTCTTGGGTTCTAACCTGTTGCCT (site AGGAATTCTAG),0.111
6,AGAAATTCTTGGGTTCTAACCTGTTGCCT (site AGTAATTCTAG),0.0316
7,AGAAGTCCTTGGGTTCTAACCTGTTGCTG (site AGAAGTCCTCA),1.11
8,AGAAGTCCTTGGGTTCTAACCTGTTGCTG (site AGAAGTCCTCC),0.0845
9,AGAAGTCCTTGGGTTCTAACCTGTTGCTG (site AGAAGTCCTCG),0.0922
10,AGAAGTCCTTGGGTTCTAACCTGTTGCTG (site AGAAGTCCTCT),0.773
11,AGAATCCCTTGGGTTCTAACCTGTTGCTA (site AGAATCCCTTA),1.74
12,AGAATCCCTTGGGTTCTAACCTGTTGCTA (site GCAATCCCTTA),0.106
13,AGACGTCCTTGGGTTCTAACCTGTTGCGT (site AGACGTCCTAC),2.51
14,AGACGTCCTTGGGTTCTAACCTGTTGCGT (site ATACGTCCTAT),0.233
15,AGACTAACTTGGGTTCTAACCTGTTGCTT (site AGACTAACTAA),0.715
16,AGACTAACTTGGGTTCTAACCTGTTGCTT (site GGACTAACTAG),0.0387
17,AGACTCTCTTGGGTTCTAACCTGTTGCCT (site AGACTCTCTAG),2.01
18,AGACTCTCTTGGGTTCTAACCTGTTGCCT (site ATACTCTCTAG),0.377
19,AGACTTCCTTGGGTTCTAACCTGTTGCTT (site AGACATCCTAA),0.158
20,AGACTTCCTTGGGTTCTAACCTGTTGCTT (site AGACCTCCTAA),0.121
21,AGACTTCCTTGGGTTCTAACCTGTTGCTT (site AGACGTCCTAA),0.0179

row,Sequence,recombinant barcode read abundance (log10)
1,AGACTTCCTTGGGTTCTAACCTGTTGCTT (site AGACTTCCTAA),0.811
2,AGAGAGTCTTGGGTTCTAACCTGTTGCCT (site AGAAAGTCTAC),0.0903
3,AGAGAGTCTTGGGTTCTAACCTGTTGCCT (site AGAGAGTCTAG),2.53
4,AGAGGGTCTTGGGTTCTAACCTGTTGCCT (site AAAGGGTCTAG),0.21
5,AGAGGGTCTTGGGTTCTAACCTGTTGCCT (site ACAGGGTCTAG),0.731
6,AGAGGGTCTTGGGTTCTAACCTGTTGCCT (site AGAGGGTCTAG),2.79
7,AGAGGGTCTTGGGTTCTAACCTGTTGCCT (site ATAGGGTCTAG),0.765
8,AGAGGTCCTTGGGTTCTAACCTGTTGCCT (site AGAGGTCCTAG),2.04
9,AGAGGTCCTTGGGTTCTAACCTGTTGCCT (site TGAGGGCCTAG),0.169
10,AGAGTGACTTGGGTTCTAACCTGTTGCCT (site AGAGAGACTAG),1
11,AGAGTGACTTGGGTTCTAACCTGTTGCCT (site AGAGCGACTAG),0.0794
12,AGAGTGACTTGGGTTCTAACCTGTTGCCT (site AGAGGGACTAG),0.0448
13,AGAGTGACTTGGGTTCTAACCTGTTGCCT (site AGAGTGACTAG),1.69
14,AGATTCACTTGGGTTCTAACCTGTTGCCT (site AGATTCACTAG),0.994
15,AGATTCACTTGGGTTCTAACCTGTTGCCT (site AGATTGACTTG),0.0824
16,AGATTCCCTTGGGTTCTAACCTGTTGCCG (site AGATTCCCTCG),1.67
17,AGATTCCCTTGGGTTCTAACCTGTTGCCG (site AGATTCGCTCG),0.0429
18,AGATTTCCTTGGGTTCTAACCTGTTGCAT (site AGATTTCCTAT),0.173
19,AGATTTCCTTGGGTTCTAACCTGTTGCAT (site CATCCGACTGA),0.0339
